These results are taken from patent publication US10875876B2, “Cyclized sulfamoylarylamide derivatives and the use thereof as medicaments for the treatment of hepatitis B” (priority 2015, dated 2020).

Data set [1] can be described thus: Cytotoxicity in HepG2 cells, Resazurin assay. Particulars: human, HepG2 cells, TOX-HepG2-4 d CC50 (μM), HepG2 cells incubated for 4 days, viability by Resazurin assay.
The subject of the next data set is HBV. The data set can be described thus: anti HBV activity, HepG2.117 cell line, intracellular HBV DNA by realtime PCR. Particulars: HepG2.117 cell line (Tet-off), 3 days of treatment, intracellular HBV DNA quantified by realtime PCR, read-out: HBV-AVE-HepG2.117 EC50. It counts as cell-based. In short, it runs like this:
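HepG2.117 cells, a Tet-off line that replicates HBV without doxycycline, were induced and then treated in duplicate with serially diluted compound. After 3 days, intracellular HBV DNA was quantified by real-time PCR with an HBV-specific primer set and probe.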

[2] abbreviates: Hepatitis B virus, HepG2.117, 72 h.

Where two headings read alike, the source gives them in different places. Bounds are passed on as bounds.

As a reminder, the CC50 is the concentration at which the toxic effect on the cells reaches its halfway point. Higher therefore signals better tolerance by the cells. The term EC50 denotes the concentration needed to bring the measured effect to its halfway point. As usually defined, the melting point is the temperature of the solid-liquid transition. On to `Cn1cc2c(c1C(=O)Nc1ccc(F)c(F)c1)OCC(C)(c1ncco1)NS2(=O)=O` (single isomer, unassigned) [Compound 160a, N-(3,4-difluorophenyl)-3,7-dimethyl-3-oxazol-2-yl-1,1-dioxo-2,4-dihydropyrrolo[3,4-b][1,4,5]oxathiazepine-6-carboxamide], for which the melting point came out at 239.5 °C. Moreover, the 50% cytotoxic concentration (CC50) at 4 days in data set [1] was > 25 µM. For the same compound, in the data set on HBV, the EC50 is 77 nM. Compound `C[C@H]1CCc2c(cn(C)c2C(=O)Nc2ccc(F)c(C#N)c2F)S(=O)(=O)N1` [Compound 157, (3S)—N-(3-cyano-2,4-difluoro-phenyl)-3,7-dimethyl-1,1-dioxo-2,3,4,5-tetrahydropyrrolo[3,4-f]thiazepine-6-carboxamide] registered a melting point of 247.5 °C. In addition, the CC50 at 4 days in data set [1] was > 25 µM. Moreover, the EC50 in the data set with HBV (setting [2]) is 17 nM. On to `Cn1cc2c(c1C(=O)Nc1ccc(F)c(F)c1)OC[C@H](C(O)C1CC1)NS2(=O)=O` (stereo partly shown), for which the melting point was determined as 244.8 °C.

In the case of `Cn1cc2c(c1C(=O)Nc1ccc(F)c(Cl)c1)OCC(C)(Cc1cccnc1)NS2(=O)=O` (stereo not shown) [Compound 211, N-(3-chloro-4-fluoro-phenyl)-3,7-dimethyl-1,1-dioxo-3-(3-pyridylmethyl)-2,4-dihydropyrrolo[3,4-b][1,4,5]oxathiazepine-6-carboxamide], the melting point worked out at 211.5 °C. The CC50 at 4 days in data set [1] is > 25 µM. Besides, in the data set with HBV (setting [2]), the EC50 came out at 7 nM.

In turn, `CC(C)C(O)C1COc2c(cn(C)c2C(=O)Nc2ccc(F)c(C#N)c2)S(=O)(=O)N1` (racemic) displayed a melting point of 213.7 °C. With `Cn1cc2c(c1C(=O)Nc1ccc(F)c(F)c1)CC(O)CNS2(=O)=O` (stereo not shown) [Compound 68, N-(3,4-difluorophenyl)-4-hydroxy-7-methyl-1,1-dioxo-2,3,4,5-tetrahydropyrrolo[3,4-f]thiazepine-6-carboxamide], the melting point was found to be 229 °C. In addition, the CC50 at 4 days in data set [1] is > 25 µM. Further, the EC50 with HBV (setting [2]) worked out at 230 nM. The compound `CCC(O)[C@H]1COc2c(cn(C)c2C(=O)Nc2ccc(F)c(F)c2)S(=O)(=O)N1` (stereo partly shown) yielded a melting point of 214.6 °C. Same read-out and setting: the figure for `CC(N)[C@H]1CCc2c(cn(C)c2C(=O)Nc2cc(F)c(F)c(F)c2)S(=O)(=O)N1` (stereo in doubt) is 281.2 °C.

In the case of `Cn1cc2c(c1C(=O)Nc1ccc(F)c(F)c1)OC[C@](C)(c1ccccn1)NS2(=O)=O` [Compound 127, (3S)—N-(3,4-difluorophenyl)-3,7-dimethyl-1,1-dioxo-3-(2-pyridyl)-2,4-dihydropyrrolo[3,4-b][1,4,5]oxathiazepine-6-carboxamide], the melting point is 270.8 °C. Moreover, in data set [1], the CC50 at 4 days was > 25 µM. Further, in the data set with HBV (setting [2]), the EC50 is 13 nM. `Cn1cc2c(c1C(=O)Nc1ccc(F)c(F)c1)OCC(C)(c1ncccn1)NS2(=O)=O` (single isomer, unassigned) [Compound 153a, N-(3,4-difluorophenyl)-3,7-dimethyl-1,1-dioxo-3-pyrimidin-2-yl-2,4-dihydropyrrolo[3,4-b][1,4,5]oxathiazepine-6-carboxamide] showed a melting point of 228.3 °C. The CC50 at 4 days in data set [1] was > 25 µM. Also, in the data set with HBV, the EC50 is > 125 nM. Regarding `C[C@H](O)[C@H]1CCc2c(cn(C)c2C(=O)Nc2ccc(F)c(Cl)c2)S(=O)(=O)N1` [Compound 193, (3R)—N-(3-chloro-4-fluoro-phenyl)-3-[(1S)-1-hydroxyethyl]-7-methyl-1,1-dioxo-2,3,4,5-tetrahydropyrrolo[3,4-f]thiazepine-6-carboxamide], the melting point worked out at 290.8 °C. In addition, the CC50 at 4 days in data set [1] was > 25 µM. The EC50 in the data set on HBV (setting [2]) came to 6 nM. The like results for `Cc1cccc(C2(C)COc3c(cn(C)c3C(=O)Nc3ccc(F)c(C(F)F)c3)S(=O)(=O)N2)n1` (racemic) [Compound 177, N-[3-(difluoromethyl)-4-fluoro-phenyl]-3,7-dimethyl-3-(6-methyl-2-pyridyl)-1,1-dioxo-2,4-dihydropyrrolo[3,4-b][1,4,5]oxathiazepine-6-carboxamide] were, in that order, 210.2 °C, > 25 µM and 8 nM. `Cn1cncc1CC1(C)COc2c(cn(C)c2C(=O)Nc2ccc(F)c(F)c2)S(=O)(=O)N1` (stereo not shown) [Compound 174, N-(3,4-difluorophenyl)-3,7-dimethyl-3-[(3-methylimidazol-4-yl)methyl]-1,1-dioxo-2,4-dihydropyrrolo[3,4-b][1,4,5]oxathiazepine-6-carboxamide] returned a melting point of 265.5 °C. Moreover, the CC50 at 4 days in data set [1] is > 25 µM. Moreover, in the data set with HBV (setting [2]), the EC50 was 7 nM. The like results for `Cn1cc2c(c1C(=O)Nc1ccc(F)c(C(F)F)c1)OC[C@](C)(c1ccccn1)NS2(=O)=O` [Compound 169, (3S)—N-[3-(difluoromethyl)-4-fluoro-phenyl]-3,7-dimethyl-1,1-dioxo-3-(2-pyridyl)-2,4-dihydropyrrolo[3,4-b][1,4,5]oxathiazepine-6-carboxamide] were, in that order, 208.8 °C, > 25 µM and 17 nM. In the case of `Cn1cc2c(c1C(=O)Nc1ccc(F)c(C#N)c1)OC[C@H](C(O)C1CC1)NS2(=O)=O` (stereo partly shown), the melting point worked out at 233.9 °C. In the case of `CC1C=Cc2c(csc2C(=O)Nc2ccc(F)c(F)c2)S(=O)(=O)N1` (stereo not shown), the melting point is 220.8 °C. Same read-out and setting: the figure for `CCC(O)[C@H]1COc2c(cn(C)c2C(=O)Nc2ccc(F)c(C#N)c2)S(=O)(=O)N1` (stereo partly shown) is 252.2 °C. Same read-out and setting: the result for `CCC(O)[C@@H]1COc2c(cn(C)c2C(=O)Nc2ccc(F)c(C(F)F)c2)S(=O)(=O)N1` (stereo in doubt) reads 224.6 °C; that for `CCC(O)[C@H]1COc2c(cn(C)c2C(=O)Nc2ccc(F)c(C(F)F)c2)S(=O)(=O)N1` (stereo partly shown), 224.5 °C; that for `Cc1cc(NC(=O)c2c3c(cn2C)S(=O)(=O)N[C@@H](C(O)C2CC2)CO3)ccc1F` (stereo in doubt), 234.7 °C. On the same count and under the same terms, the result for `CCC(O)[C@@H]1COc2c(cn(C)c2C(=O)Nc2ccc(F)c(F)c2)S(=O)(=O)N1` (stereo in doubt) reads 212.6 °C.

The compound `Cn1cc2c(c1C(=O)Nc1ccc(F)c(Cl)c1)OC[C@H](C(O)C1CC1)NS2(=O)=O` (stereo in doubt) displayed a melting point of 215.8 °C. For `Cn1cc2c(c1C(=O)Nc1ccc(F)c(C(F)F)c1)OC[C@H](C(O)C1CC1)NS2(=O)=O` (stereo partly shown), the melting point was 240.7 °C. For the compound `CC(C)C(O)C1COc2c(cn(C)c2C(=O)Nc2ccc(F)c(F)c2)S(=O)(=O)N1` (racemic), the melting point worked out at 247.3 °C. Same read-out and setting: the figure for `CC(NCC(F)(F)F)C1CCc2c(cn(C)c2C(=O)Nc2cc(F)c(F)c(F)c2)S(=O)(=O)N1` (stereo not shown) is 216.2 °C; for `Cc1sc2c(c1C(=O)Nc1ccc(F)c(F)c1)OCC(C)NS2(=O)=O` (stereo not shown) it is 221.5 °C; for `CC1CCc2c(cn(C)c2C(=O)Nc2ccc(F)c(F)c2)S(=O)(=O)N1` (stereo not shown) it is 229.8 °C.

With `C[C@H]1C=Cc2c(cn(C)c2C(=O)Nc2ccc(F)c(C(F)F)c2)S(=O)(=O)N1` (single isomer, unassigned) [Compound 51, (3*S)—N-[3-(difluoromethyl)-4-fluoro-phenyl]-3,7-dimethyl-1,1-dioxo-2,3-dihydropyrrolo[3,4-f]thiazepine-6-carboxamide], the CC50 at 4 days in data set [1] was > 25 µM. Besides, in the data set on HBV (setting [2]), the half-maximal effective concentration (EC50) was < 2 nM. The like results for `CC[C@H](C)[C@H]1COc2c(cn(C)c2C(=O)Nc2ccc(F)c(F)c2)S(=O)(=O)N1` [Compound 23, (3 S)—N-(3,4-difluorophenyl)-7-methyl-3-[(1S)-1-methylpropyl]-1,1-dioxo-3,4-dihydro-2H-pyrrolo[3,4-b][1,4,5]oxathiazepine-6-carboxamide] were, in that order, 10.6 µM and 5 nM. The like results for `CC1C=Cc2c(cn(C)c2C(=O)Nc2ccc(F)c(F)c2)S(=O)(=O)N1C` (stereo not shown) [Compound 18, N-(3,4-difluorophenyl)-2,3,7-trimethyl-1,1-dioxo-3H-pyrrolo-[3,4-f]thiazepine-6-carboxamide] were, in that order, > 25 µM and 710 nM. The like results for `CC(C)[C@@H]1COc2c(cn(C)c2C(=O)Nc2ccc(F)c(F)c2)S(=O)(=O)N1` [Compound 27, (3R)—N-(3,4-difluorophenyl)-3-isopropyl-7-methyl-1,1-dioxo-3,4-dihydro-2H-pyrrolo[3,4-b][1,4,5]oxathiazepine-6-carboxamide] were, in that order, > 25 µM and 110 nM. As to `Cn1cc2c(c1C(=O)Nc1ccc(F)c(C(F)F)c1)CCC(C(C)(C)O)NS2(=O)=O` (single isomer, unassigned) [Compound 150a, N-[3-(difluoromethyl)-4-fluoro-phenyl]-3-(1-hydroxy-1-methyl-ethyl)-7-methyl-1,1-dioxo-2,3,4,5-tetrahydropyrrolo[3,4-f]thiazepine-6-carboxamide], the CC50 at 4 days in data set [1] is > 25 µM. The EC50 in the data set on HBV is > 125 nM. Take `Cn1cc2c(c1C(=O)Nc1ccc(F)c(F)c1)OC[C@H]([C@H](O)c1ccccc1)NS2(=O)=O` [Compound 36, (3R)—N-(3,4-difluorophenyl)-3-[(R)-hydroxy(phenyl)methyl]-7-methyl-1,1-dioxo-3,4-dihydro-2H-pyrrolo[3,4-b][1,4,5]oxathiazepine-6-carboxamide]: the CC50 at 4 days in data set [1] is > 25 µM. The EC50 with HBV (setting [2]) came out at 5 nM. As for `Cn1cc2c(c1C(=O)Nc1ccc(F)c(F)c1)OCC(C)(C)NS2(=O)=O` [Compound 133, N-(3,4-difluorophenyl)-3,3,7-trimethyl-1,1-dioxo-2,4-dihydropyrrolo-[3,4-b][1,4,5]oxathiazepine-6-carboxamide], the CC50 at 4 days in data set [1] is > 25 µM. In the data set with HBV (setting [2]), the EC50 came out at 11 nM.
